Patent publication US10253039B2, “Inhibitors of bacterial DNA gyrase with efficacy against gram-negative bacteria” (priority 2014, dated 2019)
≈ marks a conversion by molar mass, not a printed value.

Test system: E. coli BW25113
Test: MIC, microdilution in 96-well plates
Assay type: cell-based
Settings: Escherichia coli, BW25113, B: E. coli BW25113; read-out: MIC
Method in brief: (§1)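 MIC read by eye as the lowest concentration without turbidity, after 16-18 h shaking incubation at 37° C. Cells: 1:10000 inoculum from growing subculture in LB. Compound in 2-fold serial dilutions, triplicate wells, DMSO vehicle control; CLSI protocol.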

| Structure (SMILES) | MIC [µg/mL] |
| --- | --- |
| CC(C)(C)Oc1ccc(CN2CC[C@@H](NS(=O)(=O)c3cccc(C(F)(F)F)c3)C2)cc1 [Compound 23] | > 8 |
| O=S(=O)(N[C@@H]1CCN(Cc2ccc3c(c2)OCCO3)C1)c1cccc(OC(F)(F)F)c1 [Compound 62] | > 8 |
| O=S(=O)(N[C@@H]1CCN(Cc2ccc(OC3CCCC3)cc2)C1)c1cccc(C(F)(F)F)c1 [Compound 41] | > 8 |
| O=S(=O)(N[C@@H]1CCN(Cc2cn(-c3ccccc3)nn2)C1)c1cccc(C(F)(F)F)c1 [Compound 108] | > 8 |
| O=S(=O)(N[C@@H]1CCN(Cc2ccc(-c3cccc(Cl)c3)cc2)C1)c1cccc(OC(F)(F)F)c1 [Compound 28] | > 8 |
| O=S(=O)(N[C@@H]1CCN(Cc2ccc(OC3CC3)cc2)C1)c1cc(S(=O)(=O)c2ccccc2)cs1 [Compound 65] | > 8 |

Test system: Edwardsiella tarda
Test: MIC, microdilution in 96-well plates
Assay type: cell-based
Settings: D: Edwardsiella tarda
Method in brief: as §1

| Structure (SMILES) | MIC [µg/mL] |
| --- | --- |
| CC(C)(C)Oc1ccc(CN2CC[C@@H](NS(=O)(=O)c3cccc(C(F)(F)F)c3)C2)cc1 [Compound 23] | > 8 |
| O=S(=O)(N[C@@H]1CCN(Cc2ccc3c(c2)OCCO3)C1)c1cccc(OC(F)(F)F)c1 [Compound 62] | > 8 |
| O=S(=O)(N[C@@H]1CCN(Cc2ccc(OC3CCCC3)cc2)C1)c1cccc(C(F)(F)F)c1 [Compound 41] | > 8 |
| O=S(=O)(N[C@@H]1CCN(Cc2cn(-c3ccccc3)nn2)C1)c1cccc(C(F)(F)F)c1 [Compound 108] | > 8 |
| O=S(=O)(N[C@@H]1CCN(Cc2ccc(-c3cccc(Cl)c3)cc2)C1)c1cccc(OC(F)(F)F)c1 [Compound 28] | > 8 |
| O=S(=O)(N[C@@H]1CCN(Cc2ccc(OC3CC3)cc2)C1)c1cc(S(=O)(=O)c2ccccc2)cs1 [Compound 65] | > 8 |

Test system: E. coli JW5503 (deltolC)
Test: MIC, 20-strain panel
Assay type: cell-based
Settings: Escherichia coli, C: E. coli JW5503 (deltolC)
Method in brief: as §1

| Structure (SMILES) | MIC [µg/mL] |
| --- | --- |
| CC(C)(C)Oc1ccc(CN2CC[C@@H](NS(=O)(=O)c3cccc(C(F)(F)F)c3)C2)cc1 [Compound 23] | 0.5 (≈ 1.1 µM) |
| O=S(=O)(N[C@@H]1CCN(Cc2ccc3c(c2)OCCO3)C1)c1cccc(OC(F)(F)F)c1 [Compound 62] | 8 (≈ 17.4 µM) |
| O=S(=O)(N[C@@H]1CCN(Cc2ccc(OC3CCCC3)cc2)C1)c1cccc(C(F)(F)F)c1 [Compound 41] | 0.5 (≈ 1.07 µM) |
| O=S(=O)(N[C@@H]1CCN(Cc2cn(-c3ccccc3)nn2)C1)c1cccc(C(F)(F)F)c1 [Compound 108] | > 8 |
| O=S(=O)(N[C@@H]1CCN(Cc2ccc(-c3cccc(Cl)c3)cc2)C1)c1cccc(OC(F)(F)F)c1 [Compound 28] | > 8 |
| O=S(=O)(N[C@@H]1CCN(Cc2ccc(OC3CC3)cc2)C1)c1cc(S(=O)(=O)c2ccccc2)cs1 [Compound 65] | > 8 |

Test system: E. coli MG1655
Test: MIC, 20-strain panel
Assay type: cell-based
Settings: Escherichia coli, MG1655, A: E. coli MG1655; read-out: MIC
Method in brief: as §1

| Structure (SMILES) | MIC [µg/mL] |
| --- | --- |
| CC(C)(C)Oc1ccc(CN2CC[C@@H](NS(=O)(=O)c3cccc(C(F)(F)F)c3)C2)cc1 [Compound 23] | > 8 |
| O=S(=O)(N[C@@H]1CCN(Cc2ccc3c(c2)OCCO3)C1)c1cccc(OC(F)(F)F)c1 [Compound 62] | > 8 |
| O=S(=O)(N[C@@H]1CCN(Cc2ccc(OC3CCCC3)cc2)C1)c1cccc(C(F)(F)F)c1 [Compound 41] | > 8 |
| O=S(=O)(N[C@@H]1CCN(Cc2cn(-c3ccccc3)nn2)C1)c1cccc(C(F)(F)F)c1 [Compound 108] | > 8 |
| O=S(=O)(N[C@@H]1CCN(Cc2ccc(-c3cccc(Cl)c3)cc2)C1)c1cccc(OC(F)(F)F)c1 [Compound 28] | > 8 |
| O=S(=O)(N[C@@H]1CCN(Cc2ccc(OC3CC3)cc2)C1)c1cc(S(=O)(=O)c2ccccc2)cs1 [Compound 65] | > 8 |

Test system: Klebsiella pneumoniae subsp. pneumoniae
Test: MIC, 20-strain panel
Assay type: cell-based
Settings: E: Klebsiella pneumoniae subsp. pneumoniae
Method in brief: as §1

| Structure (SMILES) | MIC [µg/mL] |
| --- | --- |
| CC(C)(C)Oc1ccc(CN2CC[C@@H](NS(=O)(=O)c3cccc(C(F)(F)F)c3)C2)cc1 [Compound 23] | > 8 |
| O=S(=O)(N[C@@H]1CCN(Cc2ccc3c(c2)OCCO3)C1)c1cccc(OC(F)(F)F)c1 [Compound 62] | > 8 |
| O=S(=O)(N[C@@H]1CCN(Cc2ccc(OC3CCCC3)cc2)C1)c1cccc(C(F)(F)F)c1 [Compound 41] | > 8 |
| O=S(=O)(N[C@@H]1CCN(Cc2cn(-c3ccccc3)nn2)C1)c1cccc(C(F)(F)F)c1 [Compound 108] | > 8 |
| O=S(=O)(N[C@@H]1CCN(Cc2ccc(-c3cccc(Cl)c3)cc2)C1)c1cccc(OC(F)(F)F)c1 [Compound 28] | > 8 |
| O=S(=O)(N[C@@H]1CCN(Cc2ccc(OC3CC3)cc2)C1)c1cc(S(=O)(=O)c2ccccc2)cs1 [Compound 65] | > 8 |

Test system: Salmonella enterica subsp. enterica typhimurium
Test: MIC, 20-strain panel
Assay type: cell-based
Settings: F: Salmonella enterica subsp. enterica Typhimurium
Method in brief: as §1

| Structure (SMILES) | MIC [µg/mL] |
| --- | --- |
| CC(C)(C)Oc1ccc(CN2CC[C@@H](NS(=O)(=O)c3cccc(C(F)(F)F)c3)C2)cc1 [Compound 23] | > 8 |
| O=S(=O)(N[C@@H]1CCN(Cc2ccc3c(c2)OCCO3)C1)c1cccc(OC(F)(F)F)c1 [Compound 62] | > 8 |
| O=S(=O)(N[C@@H]1CCN(Cc2ccc(OC3CCCC3)cc2)C1)c1cccc(C(F)(F)F)c1 [Compound 41] | 8 (≈ 17.1 µM) |
| O=S(=O)(N[C@@H]1CCN(Cc2cn(-c3ccccc3)nn2)C1)c1cccc(C(F)(F)F)c1 [Compound 108] | > 8 |
| O=S(=O)(N[C@@H]1CCN(Cc2ccc(-c3cccc(Cl)c3)cc2)C1)c1cccc(OC(F)(F)F)c1 [Compound 28] | > 8 |
| O=S(=O)(N[C@@H]1CCN(Cc2ccc(OC3CC3)cc2)C1)c1cc(S(=O)(=O)c2ccccc2)cs1 [Compound 65] | > 8 |

Test system: Shigella flexneri
Test: MIC, 20-strain panel
Assay type: cell-based
Settings: G: Shigella flexneri
Method in brief: as §1

| Structure (SMILES) | MIC [µg/mL] |
| --- | --- |
| CC(C)(C)Oc1ccc(CN2CC[C@@H](NS(=O)(=O)c3cccc(C(F)(F)F)c3)C2)cc1 [Compound 23] | > 8 |
| O=S(=O)(N[C@@H]1CCN(Cc2ccc3c(c2)OCCO3)C1)c1cccc(OC(F)(F)F)c1 [Compound 62] | > 8 |
| O=S(=O)(N[C@@H]1CCN(Cc2ccc(OC3CCCC3)cc2)C1)c1cccc(C(F)(F)F)c1 [Compound 41] | > 8 |
| O=S(=O)(N[C@@H]1CCN(Cc2cn(-c3ccccc3)nn2)C1)c1cccc(C(F)(F)F)c1 [Compound 108] | > 8 |
| O=S(=O)(N[C@@H]1CCN(Cc2ccc(-c3cccc(Cl)c3)cc2)C1)c1cccc(OC(F)(F)F)c1 [Compound 28] | > 8 |
| O=S(=O)(N[C@@H]1CCN(Cc2ccc(OC3CC3)cc2)C1)c1cc(S(=O)(=O)c2ccccc2)cs1 [Compound 65] | > 8 |

Test system: Staphylococcus aureus subsp. aureus
Test: MIC, 20-strain panel
Assay type: cell-based
Settings: H: Staphylococcus aureus subsp. aureus, read-out: MIC
Method in brief: as §1

| Structure (SMILES) | MIC [µg/mL] |
| --- | --- |
| CC(C)(C)Oc1ccc(CN2CC[C@@H](NS(=O)(=O)c3cccc(C(F)(F)F)c3)C2)cc1 [Compound 23] | > 8 |
| O=S(=O)(N[C@@H]1CCN(Cc2ccc3c(c2)OCCO3)C1)c1cccc(OC(F)(F)F)c1 [Compound 62] | > 8 |
| O=S(=O)(N[C@@H]1CCN(Cc2ccc(OC3CCCC3)cc2)C1)c1cccc(C(F)(F)F)c1 [Compound 41] | ~8 (≈ 17.1 µM) |
| O=S(=O)(N[C@@H]1CCN(Cc2cn(-c3ccccc3)nn2)C1)c1cccc(C(F)(F)F)c1 [Compound 108] | > 8 |
| O=S(=O)(N[C@@H]1CCN(Cc2ccc(-c3cccc(Cl)c3)cc2)C1)c1cccc(OC(F)(F)F)c1 [Compound 28] | > 8 |
| O=S(=O)(N[C@@H]1CCN(Cc2ccc(OC3CC3)cc2)C1)c1cc(S(=O)(=O)c2ccccc2)cs1 [Compound 65] | > 8 |

Test system: Staphylococcus epidermidis
Test: MIC, 20-strain panel
Assay type: cell-based
Settings: not given
Method in brief: as §1

| Structure (SMILES) | MIC [µg/mL] |
| --- | --- |
| CC(C)(C)Oc1ccc(CN2CC[C@@H](NS(=O)(=O)c3cccc(C(F)(F)F)c3)C2)cc1 [Compound 23] | > 8 |
| O=S(=O)(N[C@@H]1CCN(Cc2ccc3c(c2)OCCO3)C1)c1cccc(OC(F)(F)F)c1 [Compound 62] | > 8 |
| O=S(=O)(N[C@@H]1CCN(Cc2ccc(OC3CCCC3)cc2)C1)c1cccc(C(F)(F)F)c1 [Compound 41] | 8 (≈ 17.1 µM) |
| O=S(=O)(N[C@@H]1CCN(Cc2cn(-c3ccccc3)nn2)C1)c1cccc(C(F)(F)F)c1 [Compound 108] | > 8 |
| O=S(=O)(N[C@@H]1CCN(Cc2ccc(-c3cccc(Cl)c3)cc2)C1)c1cccc(OC(F)(F)F)c1 [Compound 28] | 2 (≈ 3.91 µM) |
| O=S(=O)(N[C@@H]1CCN(Cc2ccc(OC3CC3)cc2)C1)c1cc(S(=O)(=O)c2ccccc2)cs1 [Compound 65] | > 8 |

Test system: Staphylococcus saprophyticus subsp. saprophyticus
Test: MIC, 20-strain panel
Assay type: cell-based
Settings: not given
Method in brief: as §1

| Structure (SMILES) | MIC [µg/mL] |
| --- | --- |
| CC(C)(C)Oc1ccc(CN2CC[C@@H](NS(=O)(=O)c3cccc(C(F)(F)F)c3)C2)cc1 [Compound 23] | > 8 |
| O=S(=O)(N[C@@H]1CCN(Cc2ccc3c(c2)OCCO3)C1)c1cccc(OC(F)(F)F)c1 [Compound 62] | > 8 |
| O=S(=O)(N[C@@H]1CCN(Cc2ccc(OC3CCCC3)cc2)C1)c1cccc(C(F)(F)F)c1 [Compound 41] | > 8 |
| O=S(=O)(N[C@@H]1CCN(Cc2cn(-c3ccccc3)nn2)C1)c1cccc(C(F)(F)F)c1 [Compound 108] | > 8 |
| O=S(=O)(N[C@@H]1CCN(Cc2ccc(-c3cccc(Cl)c3)cc2)C1)c1cccc(OC(F)(F)F)c1 [Compound 28] | > 8 |
| O=S(=O)(N[C@@H]1CCN(Cc2ccc(OC3CC3)cc2)C1)c1cc(S(=O)(=O)c2ccccc2)cs1 [Compound 65] | > 8 |

Test system: Streptococcus agalactiae
Test: MIC, 20-strain panel
Assay type: cell-based
Settings: not given
Method in brief: as §1

| Structure (SMILES) | MIC [µg/mL] |
| --- | --- |
| CC(C)(C)Oc1ccc(CN2CC[C@@H](NS(=O)(=O)c3cccc(C(F)(F)F)c3)C2)cc1 [Compound 23] | > 8 |
| O=S(=O)(N[C@@H]1CCN(Cc2ccc3c(c2)OCCO3)C1)c1cccc(OC(F)(F)F)c1 [Compound 62] | > 8 |
| O=S(=O)(N[C@@H]1CCN(Cc2ccc(OC3CCCC3)cc2)C1)c1cccc(C(F)(F)F)c1 [Compound 41] | > 8 |
| O=S(=O)(N[C@@H]1CCN(Cc2cn(-c3ccccc3)nn2)C1)c1cccc(C(F)(F)F)c1 [Compound 108] | > 8 |
| O=S(=O)(N[C@@H]1CCN(Cc2ccc(-c3cccc(Cl)c3)cc2)C1)c1cccc(OC(F)(F)F)c1 [Compound 28] | > 8 |
| O=S(=O)(N[C@@H]1CCN(Cc2ccc(OC3CC3)cc2)C1)c1cc(S(=O)(=O)c2ccccc2)cs1 [Compound 65] | > 8 |

Test system: Streptococcus pyogenes
Test: MIC, 20-strain panel
Assay type: cell-based
Settings: not given
Method in brief: as §1

| Structure (SMILES) | MIC [µg/mL] |
| --- | --- |
| CC(C)(C)Oc1ccc(CN2CC[C@@H](NS(=O)(=O)c3cccc(C(F)(F)F)c3)C2)cc1 [Compound 23] | > 8 |
| O=S(=O)(N[C@@H]1CCN(Cc2ccc3c(c2)OCCO3)C1)c1cccc(OC(F)(F)F)c1 [Compound 62] | > 8 |
| O=S(=O)(N[C@@H]1CCN(Cc2ccc(OC3CCCC3)cc2)C1)c1cccc(C(F)(F)F)c1 [Compound 41] | > 8 |
| O=S(=O)(N[C@@H]1CCN(Cc2cn(-c3ccccc3)nn2)C1)c1cccc(C(F)(F)F)c1 [Compound 108] | > 8 |
| O=S(=O)(N[C@@H]1CCN(Cc2ccc(-c3cccc(Cl)c3)cc2)C1)c1cccc(OC(F)(F)F)c1 [Compound 28] | ~8 (≈ 15.7 µM) |
| O=S(=O)(N[C@@H]1CCN(Cc2ccc(OC3CC3)cc2)C1)c1cc(S(=O)(=O)c2ccccc2)cs1 [Compound 65] | > 8 |
